{"source": "paper PMC4156053", "about": "“A Conserved Mitochondrial ATP-binding Cassette Transporter Exports Glutathione Polysulfide for Cytosolic Metal Cofactor Assembly” (The Journal of Biological Chemistry, 2014)", "target": "T1, ATM3 (Arabidopsis thaliana, UniProt Q9LVM1)", "T1 construct": "gene ABCB25; inside-out membrane vesicles or Ni-NTA purified in detergent; half-transporter that dimerizes", "T1 sequence (Q9LVM1 61-728)": "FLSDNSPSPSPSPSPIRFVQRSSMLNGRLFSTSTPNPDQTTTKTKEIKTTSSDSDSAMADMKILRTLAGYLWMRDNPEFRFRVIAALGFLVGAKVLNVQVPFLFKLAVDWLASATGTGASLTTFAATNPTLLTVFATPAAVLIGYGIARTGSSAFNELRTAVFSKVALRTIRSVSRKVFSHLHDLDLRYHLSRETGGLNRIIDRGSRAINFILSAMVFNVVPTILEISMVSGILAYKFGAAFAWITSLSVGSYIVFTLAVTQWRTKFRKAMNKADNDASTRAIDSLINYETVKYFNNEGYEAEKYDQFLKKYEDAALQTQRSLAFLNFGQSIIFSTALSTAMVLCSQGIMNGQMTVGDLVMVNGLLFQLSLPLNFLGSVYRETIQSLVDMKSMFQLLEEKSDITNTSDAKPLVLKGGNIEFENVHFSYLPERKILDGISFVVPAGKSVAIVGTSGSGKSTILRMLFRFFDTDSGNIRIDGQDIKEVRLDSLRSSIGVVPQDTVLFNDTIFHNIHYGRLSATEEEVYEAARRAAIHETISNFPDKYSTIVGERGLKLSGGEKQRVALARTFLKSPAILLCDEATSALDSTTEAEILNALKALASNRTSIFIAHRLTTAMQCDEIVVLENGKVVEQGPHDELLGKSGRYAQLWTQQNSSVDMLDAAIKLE", "test": "ATPase activity, malachite green Pi release", "assay_type": "biochemical", "conditions": "5 mM Na-ATP, 5 mM MgCl2, 0.1 M HEPES-KOH pH 7.0, 30 °C", "data": [{"smiles": "Nc1ncnc2c1ncn2[C@@H]1O[C@H](COP(=O)(O)OP(=O)(O)OP(=O)(O)O)[C@@H](O)[C@H]1O", "note": "[ATP]", "values": [{"measurement": "ATPase activity, malachite green Pi release", "result": "retained their ATPase activity in detergent solution"}]}]}
